Laboratory results published in patent publication EP2951180B1, “2,6,7,8 SUBSTITUTED PURINES AS HDM2 INHIBITORS” (Merck Sharp & Dohme Corp., priority 2013, dated 2014).

biological target: T1, HDM2 (Homo sapiens, UniProt Q00987); test: FRET assay (HDM2 inhibition; method not described in this part); type: binding; settings: Table 1
T1 construct: Thioredoxin (N); made in house; host or cells: E. coli strain BL21(DE3)Rosetta
T1 sequence (Q00987 17-125): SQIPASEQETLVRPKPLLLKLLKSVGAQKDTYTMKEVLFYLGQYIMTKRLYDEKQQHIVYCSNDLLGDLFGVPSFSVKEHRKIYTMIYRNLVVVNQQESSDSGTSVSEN

`Cc1cc(-c2nc3nc(C(=O)O)nc(N[C@H](C)C4CCC4)c3n2Cc2ccc(C(F)(F)F)cc2)ccc1F` [Example 1.137, 6-{[(1R)-1-cyclobutylethyl]amino}-8-(4-fluoro-3-methylphenyl)-7-[4-(trifluoromethyl)benzyl]-7H-purine-2-carboxylic acid] and `CCc1ccc(F)c(-c2nc3nc(C(=O)O)nc(N[C@H](C)C4CCC4)c3n2Cc2ccc(C(F)(F)F)cc2)c1` [Example 1.40, 6-{[(1R)-1-cyclobutylethyl]amino}-8-(5-ethyl-2-fluorophenyl)-7-[4-(trifluoromethyl)benzyl]-7H-purine-2-carboxylic acid] are within 1.5-fold of each other in IC50: 49.7 nM for the first, 33.8 nM for the second.

Going from `C[C@@H](Nc1nc(C(=O)O)nc2nc(-c3cc(CCC4CC4)ccn3)n(Cc3ccc(C(F)(F)F)cc3)c12)C1CCC1` [Example 1.89, 6-{[(1R)-1-cyclobutylethyl]amino}-8-[4-(2-cyclopropylethyl)pyridin-2-yl]-7-[4-(trifluoromethyl)benzyl]-7H-purine-2-carboxylic acid] to `C[C@@H](Nc1nc(C(=O)O)nc2nc(-c3cc(C4CCCC4)ccn3)n(Cc3ccc(C(F)(F)F)cc3)c12)C1CCC1` [Example 1.55, 6-{[(1R)-1-cyclobutylethyl]amino}-8-(4-cyclopentylpyridin-2-yl)-7-[4-(trifluoromethyl)benzyl]-7H-purine-2-carboxylic acid], the IC50 falls from 8.67 nM to 4.77 nM (1.8-fold). The second is the more potent here.

First: C[C@@H](Nc1nc(C(=O)O)nc2nc(-c3ccc(S(C)(=O)=O)cc3)n(Cc3ccc(C(F)(F)F)cc3)c12)C1CCC1 [Example 1.24, 6-{[(1R)-1-cyclobutylethyl]amino}-8-[4-(methylsulfonyl)phenyl]-7-[4-(trifluoromethyl)benzyl] - 7H-purine-2-carboxylic acid]
Second: CC(C)Oc1cccc(-c2nc3nc(C(=O)O)nc(N[C@H](C)C4CCC4)c3n2Cc2ccc(C(F)(F)F)cc2)c1 [Example 1.127, 6-{[(1R)-1-cyclobutylethyl]amino}-8-[3-(1-methylethoxy)phenyl]-7-[4-(trifluoromethyl)benzyl]-7H-purine-2-carboxylic acid]
The IC50 of the first is 2.9-fold higher: 112 nM for the first, 38.7 nM for the second. The second is the more potent here.

Going from `C[C@@H](Nc1nc(C(=O)O)nc2nc(-c3cc(C(C)(C)C)ccn3)n(Cc3ccc(C(F)(F)F)cc3)c12)C1CCC1` [Example 1.53, 8-(4-tert-butylpyridin-2-yl)-6-{[(1R)-1-cyclobutylethyl]amino}-7-[4-(trifluoromethyl)benzyl]-7H-purine-2-carboxylic acid] to `CC(C)c1ccnc(-c2nc3nc(C(=O)O)nc(N[C@@H](C)C4CCC4)c3n2Cc2ccc(C(F)(F)F)cc2)c1` [Example 1.50], the IC50 rises from 4.36 nM to 128 nM (29-fold).

`C[C@@H](Nc1nc(C(=O)O)nc2nc(-c3cc(C(F)F)cc(C(F)F)n3)n(Cc3ccc(C(F)(F)F)cc3)c12)C1CCC1` [Example 1.64, 8-[4,6-bis(difluoromethyl)pyridin-2-yl]-6-{[(1R)-1-cyclobutylethyl]amino}-7-[4-(trifluoromethyl)benzyl] - 7H-purine-2-carboxylic acid] and `C[C@@H](Nc1nc(C(=O)O)nc2nc(-c3cccc(C(F)(F)F)n3)n(Cc3ccc(C(F)(F)F)cc3)c12)C1CCC1` [Example 1.122, 6-{[(1R)-1-cyclobutylethyl]amino}-7-[4-(trifluoromethyl)benzyl]-8-[6-(trifluoromethyl)pyridin-2-yl]-7H-purine-2-carboxylic acid] are within 1.5-fold of each other in IC50: 22.9 nM for the first, 21.2 nM for the second.

`CC(C)c1cncc(-c2nc3nc(C(=O)O)nc(N[C@H](C)C4CCC4)c3n2Cc2ccc(C(F)(F)F)cc2)c1` [Example 1.81, 6-{[(1R)-1-cyclobutylethyl]amino}-8-[5-(1-methylethyl)pyridin-3-yl]-7-[4-(trifluoromethyl)benzyl]-7H-purine-2-carboxylic acid] and `COc1cc(C)cc(-c2nc3nc(C(=O)O)nc(N[C@H](C)C4CCC4)c3n2Cc2ccc(C(F)(F)F)cc2)c1` [Example 1.123, 6-{[(1R)-1-cyclobutylethyl]amino}-8-(3-methoxy-5-methylphenyl)-7-[4-(trifluoromethyl)benzyl]-7H-purine-2-carboxylic acid] are within 1.5-fold of each other in IC50: 74.4 nM for the first, 53.6 nM for the second.

Going from `C[C@@H](Nc1nc(C(=O)O)nc2nc(-c3nccc4ccccc34)n(Cc3ccc(C(F)(F)F)cc3)c12)C1CCC1` [Example 1.73, 6-{[(1R)-1-cyclobutylethyl]amino}-8-isoquinolin-1-yl-7-[4-(trifluoromethyl)benzyl]-7H-purine-2-carboxylic acid] to `Cc1cccnc1-c1nc2nc(C(=O)O)nc(N[C@H](C)C3CCC3)c2n1Cc1ccc(C(F)(F)F)cc1` [Example 1.18], the IC50 rises from 27.3 nM to 45.7 nM (1.7-fold). The first is the more potent here.

`CCOc1ccc(C(F)(F)F)cc1-c1nc2nc(C(=O)O)nc(N[C@H](C)C3CCC3)c2n1Cc1ccc(C(F)(F)F)cc1` [Example 1.33, 6-{[(1R)-1-cyclobutylethyl]amino}-8-[2-ethoxy-5-(trifluoromethyl)phenyl]-7-[4-(trifluoromethyl)benzyl] - 7H-purine-2-carboxylic acid] and `CCOc1ccc(CC)cc1-c1nc2nc(C(=O)O)nc(N[C@H](C)C3CCC3)c2n1Cc1ccc(C(F)(F)F)cc1` [Example 1.32, 6-{[(1R)-1-cyclobutylethyl]amino}-8-(2-ethoxy-5-ethylphenyl)-7-[4-(trifluoromethyl)benzyl] - 7H-purine-2-carboxylic acid] are within 1.5-fold of each other in IC50: 19.8 nM for the first, 23.6 nM for the second.

`Cc1ccc(N(C)C)cc1-c1nc2nc(C(=O)O)nc(N[C@H](C)C3CCC3)c2n1Cc1ccc(C(F)(F)F)cc1` [Example 1.39, 6-{[(1R)-1-cyclobutylethyl]amino}-8-[5-(dimethylamino)-2-methylphenyl]-7-[4-(trifluoromethyl)benzyl]-7H-purine-2-carboxylic acid] was tested, and the IC50 was 58.5 nM.

same assay, conditions: Table 2

First: Cc1cc(C)cc(-c2nc3nc(C(=O)O)nc(N[C@H](C)C4CC4)c3n2Cc2ccc(C(F)(F)F)cc2)c1 [Example 2.50, 6-{[(1R)-1-cyclopropylethyl]amino}-8-(3,5-dimethylphenyl)-7-[4-(trifluoromethyl)benzyl]-7H-purine-2-carboxylic acid]
Second: Cc1ccc(-c2nc3nc(C(=O)O)nc(N[C@H](C)C4CC4)c3n2Cc2ccc(C(F)(F)F)cc2)cc1 [Example 2.33, 6-{[(1R)-1-cyclopropylethyl]amino}-8-(4-methylphenyl)-7-[4-(trifluoromethyl)benzyl]-7H-purine-2-carboxylic acid]
The IC50 of the first is 3.3-fold lower: 120 nM for the first, 401 nM for the second.

Going from `C[C@@H](Nc1nc(C(=O)O)nc2nc(-c3ccc(Br)cc3F)n(Cc3ccc(C(F)(F)F)cc3)c12)C1CC1` [Example 2.75, 8-(4-bromo-2-fluorophenyl)-6-{[(1R)-1-cyclopropylethyl]amino}-7-[4-(trifluoromethyl)benzyl]-7H-purine-2-carboxylic acid] to `Cc1cc(OC(F)(F)F)ccc1-c1nc2nc(C(=O)O)nc(N[C@H](C)C3CC3)c2n1Cc1ccc(C(F)(F)F)cc1` [Example 2.54, 6-{[(1R)-1-cyclopropylethyl]amino}-8-[2-methyl-4-(trifluoromethoxy)phenyl]-7-[4-(trifluoromethyl)benzyl]-7H-purine-2-carboxylic acid], the IC50 rises from 204 nM to 826 nM (4-fold).

First: C[C@@H](Nc1nc(C(=O)O)nc2nc(-c3ccncc3)n(Cc3ccc(C(F)(F)F)cc3)c12)C1CCC1 [Example 2.77, 6-{[(1R)-1-cyclobutylethyl]amino}-8-pyridin-4-yl-7-[4-(trifluoromethyl)benzyl]-7H-purine-2-carboxylic acid]
Second: C[C@@H](Nc1nc(C(=O)O)nc2nc(-c3ccc(C#N)cc3)n(Cc3ccc(C(F)(F)F)cc3)c12)C1CC1 [Example 2.57, 8-(4-cyanophenyl)-6-{[(1R)-1-cyclopropylethyl]amino}-7-[4-(trifluoromethyl)benzyl]-7H-purine-2-carboxylic acid]
The IC50 of the first is 6-fold lower: 72.6 nM for the first, 432 nM for the second. The first is the more potent here.

Compared with `C[C@@H](Nc1nc(C(=O)O)nc2nc(Cc3ccccc3)n(Cc3ccc(C(F)(F)F)cc3)c12)C1CCC1` [Example 2.3, (R)-8-benzyl-6-((1-cyclobutylethyl)amino)-7-(4-(trifluoromethyl)benzyl)-7H-purine-2-carboxylic acid], `COc1ccc(-c2nc3nc(C(=O)O)nc(N[C@H](C)C4CC4)c3n2Cc2ccc(C(F)(F)F)cc2)cc1Cl` [Example 2.66, 8-(3-chloro-4-methoxyphenyl)-6-{[(1R)-1-cyclopropylethyl]amino}-7-[4-(trifluoromethyl)benzyl]-7H-purine-2-carboxylic acid] is 31-fold higher in IC50: 3.66 nM for the first, 112 nM for the second. The first is the more potent here.

same assay, conditions: Table 3

Compared with `C[C@@H](Nc1nc(C(=O)O)nc2nc(-c3ncccn3)n(Cc3ccc(C(F)(F)F)cc3)c12)C1CCC1` [Example 3.4, 6-{[(1R)-1-cyclobutylethyl]amino}-8-pyrimidin-2-yl-7-[4-(trifluoromethyl)benzyl] -7H-purine-2-carboxylic acid], `C[C@@H](Nc1nc(C(=O)O)nc2nc(-c3ncco3)n(Cc3ccc(C(F)(F)F)cc3)c12)C1CCC1` [Example 3.5, 6-{[(1R)-1-cyclobutylethyl]amino}-8-(1,3-oxazol-2-yl)-7-[4-(trifluoromethyl)benzyl] -7H-purine-2-carboxylic acid] is 2.3-fold lower in IC50: 69.8 nM for the first, 30 nM for the second.

same assay, conditions: Table 4

Compared with `Cc1ccc(OCCCN2CCOCC2)c(-c2nc3nc(C(=O)O)nc(N[C@H](C)C4CC4)c3n2Cc2ccc(Cl)cc2)c1` [Example 4.14, (R)-7-(4-chlorobenzyl)-6-((1-cyclopropylethyl)amino)-8-(5-methyl-2-(3-morpholinopropoxy)phenyl)-7H-purine-2-carboxylic acid], `Cc1ccc(OCCCO)c(-c2nc3nc(C(=O)O)nc(N[C@H](C)C4CC4)c3n2Cc2ccc(Cl)cc2)c1` [Example 4.20, (R)-7-(4-chlorobenzyl)-6-((1-cyclopropylethyl)amino)-8-(2-(3-hydroxypropoxy)-5-methylphenyl)-7H-purine-2-carboxylic acid] is 1.9-fold lower in IC50: 212 nM for the first, 112 nM for the second. The second is the more potent here.

Work on `Cc1ccc(OCCC(=O)NCCO)c(-c2nc3nc(C(=O)O)nc(N[C@H](C)C4CC4)c3n2Cc2ccc(Cl)cc2)c1` [Example 4.12, (R)-7-(4-chlorobenzyl)-6-((1-cyclopropylethyl)amino)-8-(2-(3-((2-hydroxyethyl)amino)-3-oxopropoxy)-5-methylphenyl)-7H-purine-2-carboxylic acid] yielded an IC50 of 348 nM.

same assay, conditions: Table 5

Work on `COc1ccc(Cn2c(-c3cccc(C)c3)nc3nc(C(=O)O)nc(N[C@H](C)C4CCC4)c32)cc1` [Example 5.19, 6-{[(1R)-1-cyclobutylethyl]amino}-7-(4-methoxybenzyl)-8-(3-methylphenyl)-7H-purine-2-carboxylic acid] yielded an IC50 of 582 nM.
